Laboratory results reported in paper PMC2702281, “HLA-A*0201-restricted CTL epitope of a novel osteosarcoma antigen, papillomavirus binding factor” (Journal of Translational Medicine, 2009).

How the values were obtained:
[1] = biological target: HLA-A*0201 molecules (Homo sapiens, UniProt P04439, D140Y/D185E/D98H/E176V/E277Q/G131W/G231S/I119V/I121R/I166T/I218V/L300P/L318F/N151K/N90K/P208A/P217A/Q86G/Q94H/R138H/R169H/T345S); test: T2 cell surface HLA class I stabilization assay; type: cell-based; conditions: for HLA-peptide binding affinity (%MFI increase ± SD): peptide 50 μg/ml, T2 cells, anti-HLA-A2 mAb BB7.2 staining, triplicate, mean ± SD
[2] = tested on: PBF A2.2-specific CD8+ T cells; test: LD/MLPC followed by tetramer-based frequency analysis; type: cell-based, human
Excerpt: Prior to frequency analysis and cytotoxicity assays, PBMC of patients were subjected to mixed lymphocyte peptide culture under limiting dilution conditions (LD/MLPC) according to the method described by Karanikas et al. with some modifications. LD/MLPC aims to seed at most one CTL precursor cell per well and induces proliferation of the precursor cell by subsequent mixed lymphocyte peptide culture. For this purpose, the appropriate number of PBMC and CD8^+ cells per well is considered to be 1 × 10^5–2 × 10^5 [17, 24].
PBMCs were used as a source of responder cells in the initial five subjects (Patients 1 and 2 and three healthy donors) and CD8^+ cells were used in the following three patients (Patients 3–5) [see Additional file 2].
PBMC obtained from peripheral blood samples (50 ml) of Patients 1 and 2 and three healthy donors were suspended in AIM-V (Invitrogen Corp., Carlsbad, CA) supplemented with 1% human serum (HS). These cells were incubated for 60 min at room temperature with peptide PBF A2.2 (50 μg/ml). Peptide-pulsed PBMC were seeded at 2 × 10^5 cells/200 μl/well into round-bottom 96-microwell plates in AIM-V with 10%HS, IL-2 (20 U/ml; a kind gift from Takeda Chemical Industries, Ltd., Osaka Japan) and IL-7 (10 ng/ml; R&D Systems, Minneapolis, Minnesota, USA), and incubated. On day 7, half of the medium was replaced with fresh AIM-V containing IL-2, IL-7 and the same peptides. The cell cultures were maintained by adding fresh AIM-V containing IL-2. On days 14–21, they were subjected to tetramer-based frequency analysis.
PBMC obtained from Patients 3–5 were separated into CD8^+ cells and CD8^- cells using magnetic anti-CD8 microbeads (Miltenyi Biotec, Gladbach, Germany). CD8^- cells were pulsed with the PBF A2.2 peptide for 60 min. Half of the CD8^- cells were cryopreserved at -80°C for the second stimulation. CD8^+ cells (1.0–2.1 × 10^5/well) and irradiated PBF A2.2 peptide-pulsed CD8^- cells (1–5 × 10^5/well) were cocultured in 48-well cell culture plates in 500 μl of AIM-V with 10%HS, IL-2 and IL-7. On day 7, the second stimulation was performed by adding irradiated peptide-pulsed CD8^- cells to each culture well in 500 μl of AIM-V with 10%HS, IL-2 and IL-7. On days 13–23, they were subjected to tetramer-based frequency analysis.
An FITC-conjugated HLA-A*0201/HIV tetramer (here termed the control tetramer) and a PE-conjugated HLA-A*0201/PBF A2.2 tetramer (A2/PBF A2.2 tetramer) were constructed by Medical & Biological Laboratories Co., Ltd. (Tokyo, Japan). PBMCs from patients were stimulated with the PBF A2.2 peptide by using the LD/MLPC procedure as described above. From each microwell containing 200 μl of the microculture pool, 100 μl was transferred to a V-bottom microwell and washed. To the spin-down pellets, the control tetramer and A2/PBF A2.2 tetramer (10 nM in 25 μl of PBS) were added in combination and incubated for 15 min at room temperature. Then a PE-Cy5-conjugated anti-CD8 antibody (eBioscience, San Diego, California, USA) was added (dilution of 1:30 in 25 μl of PBS containing the control tetramer and A2/PBF A2.2 tetramer) and incubated for another 15 min. The cells were washed in PBS twice, fixed with 0.5% formaldehyde, and analyzed by flow cytometry using FACScan and CellQuest software (Becton Dickinson, San Jose, California, USA). CD8^+ living cells were gated and the cells labeled with the A2/PBF A2.2 tetramer were referred to as tetramer-positive cells. Tetramer-positive cells in each well are theoretically derived from a single CTL precursor, regardless of the number (percentage) of tetramer-positive cells. Accordingly, the number of tetramer-positive wells represents the number of CTL precursors. The frequency of anti-PBF A2.2 CTLs was evaluated using the following calculation: (number of tetramer-positive wells)/[(total number of tested wells) × (initial number of CD8+ cells per well)].

[3] = tested on: T2 cells
Experimental: CTL-mediated cytolytic activity was measured by a 6 h-^51Cr-release assay [25]. […] T2 cells were treated with or without peptides at the indicated concentrations for 1 h at room temperature after ^51Cr-labeling. […] Target cells were labeled with 100 μCi of ^51Cr for 1 h at 37°C. The labeled target cells were suspended in RPMI without serum and seeded to microwells (2–5 × 10^3 cells/well).
CTL 5A9 and CTL clones were used as the effector cells. The effector cells were transferred to V-bottom microwells, suspended in AIM-V and mixed with the labeled target cells. After a 6 h incubation period at 37°C, the ^51Cr level in the culture supernatant was measured using an automated gamma counter. The percentage of specific cytotoxicity was calculated as follows: the percentage of specific ^51Cr release = 100 × (experimental release – spontaneous release)/(maximum release – spontaneous release).

[4] = three tetramer-positive patients with osteosarcoma

| Sequence | HLA-peptide binding affinity (%MFI increase ± SD) [1] | other results |
| --- | --- | --- |
| FETDPDPFL [Peptide A2.7] | 8.2 ± 19.1 %MFI increase | – |
| WLLEQKLQV [Peptide A2.1] | 38.8 ± 15.5 %MFI increase | – |
| YQALPSFQI [Peptide A2.9] | 10.2 ± 8.2 %MFI increase | – |
| FQPGQKVYV [Peptide A2.3] | 2.7 ± 9.4 %MFI increase | – |
| GLVEQHSWM [Peptide A2.4] | 1.8 ± 9.9 %MFI increase | – |
| ALPSFQIPV [Peptide A2.2] | 74.5 ± 6.6 %MFI increase | %MFI increase in peptide titration experiments ([1]; HLA class I stabilization assay at indicated concentrations, Fig. 1): dose-dependent increases of %MFI; %MFI increase compared among the peptides ([1]; HLA class I stabilization assay, ten PBF-derived peptides): highest %MFI increase among the peptides; Frequency of CTL precursors calculated as 2/5.4 × 10^6 ([2]; Patient 4, 36 wells at 1.5 × 10^5 CD8+ cells per well, tetramer analysis on day 21, Fig. 2): 3.7 × 10^-7; Patients in whom A2/PBF A2.2 tetramer-positive T cells were detected ([2]; five HLA-A*0201+ patients with PBF-positive osteosarcoma): three of the five patients; Frequencies of the PBF A2.2-specific CD8+ T cells, average ([2]; three healthy donors): 2 × 10^-7; Frequencies of the PBF A2.2-specific CD8+ T cells, range ([2]; three healthy donors): 1 × 10^-7 to 3 × 10^-7; Frequencies of the PBF A2.2-specific CD8+ T cells, average [2, 4]: 2 × 10^-6; Frequencies of the PBF A2.2-specific CD8+ T cells, range [2, 4]: 2 × 10^-7 to 5 × 10^-6; Cytotoxicity of five CTL clones (1B1, 1D7, 1E1, 1F4, 1F7) against peptide-pulsed T2 cells [3]: All five CTL clones lysed PBF A2.2 peptide-pulsed T2 cells |
| SMTGLPLSAL [Peptide A2.8] | -1.5 ± 2.5 %MFI increase | – |
| FETDPDPFLL [Peptide A2.6] | 22.5 ± 9.6 %MFI increase | – |
| MMAAMVLTSL [Peptide A2.5] | 10.5 ± 12.0 %MFI increase | – |
| KVLRSIVGI [Peptide A2.10] | 4.4 ± 9.9 %MFI increase | – |
